Source: patent publication US7981896B2 (Athersys, Inc., priority 2006, dated 2011)

Molecular target: T1, human histamine H3 receptor (Homo sapiens, UniProt Q9Y5N1)
T1 construct: endogenous in cells; host or cells: HT1080-Gqαi5 RAGE clone (RAGE-H3), human fibrosarcoma line; integrated RAGE vector pFG8-HH3 supplies exon 1, the cell's own gene supplies the other exons
Test: Competition radioligand binding assay with [125I]iodoproxyfan on membranes of RAGE-H3 (HT1080-Gqαi5) cells expressing human H3 receptor
Conditions: ~0.15 nM [125I]iodoproxyfan, 1.5 hrs at room temperature, head does not name the quantity (apparent Ki by Cheng-Prussof)
Description: Representative compounds of the present invention that were prepared by the procedures of Examples 1-83 were evaluated in binding assays against cells expressing human H3 receptor by the following procedure.
[^125I]iodoproxyfan (2000 Ci/mmol) was obtained from Amersham Bioscience (Piscataway, N.J.). All other chemicals were either from Sigma-Aldrich (St. Louis, Mo.) or Tocris Cookson Inc. (Ellisville, Mo.).
The human histamine H3 receptor was stably expressed in HT1080 cells containing the chimeric G-protein, Gq[…]i5 (Coward et al., Anal Biochem 1999; 270:242-8). HT1080-Gqαi5 cells were grown in alpha-modified MEM containing 10% fetal bovine serum and 7 μg/ml blasticidin at 37° C. in 5% CO2/95% atmosphere. Cells (4.8×10^9) were irradiated with 50 rads from a ^137Cs source and the pFG8-HH3 RAGE (Random Activation of Gene Expression; see Harrington et al., Nature Biotechnology. 2001; 19:440-45) vector was subsequently integrated into the cells via electroporation (250V, 600 μF, 50Ω). The RAGE vector pFG8-HH3 contained cDNA sequence coding for the first exon (83 amino acids) of human H3 receptor. After electroporation, cells were plated in T75 flasks and grown in alpha-modified MEM. The culture medium was replaced 48 hrs after electroporation with alpha-modified MEM, 10% fetal bovine serum, 500 μg/ml hygromycin B and 3 μg/ml puromycin. Medium was replaced every four days during cell expansion. To identify RAGE activated cells expressing the H3 receptor, pools of approximately 10,000 colonies (5×10^7-1.5×10^8 cells total) were screened by PCR for the desired gene product (using primers specific to the RAGE vector and exon 2 of the H3 receptor). […] Positive 100 cells/well pools were identified by PCR, confirmed by sequencing, and subsequently subcloned to 0.8 cells/well. Once clones expressing the H3 receptor were identified by PCR analysis, assays (FLIPR or radioligand binding) were performed to confirm that the activated gene produced functional protein. The protein expression in the initial clones obtained from the RAGE library was increased by growth in the presence of methotrexate. Since the integrated RAGE vector contains the DHFR gene, such treatment selects for cells that have amplified the genetic locus containing the RAGE insert. Subclones obtained after methotrexate amplification were tested for functional activity in FLIPR assays to identify the clone that was most suitable for HTS. The final HT1080-Gqαi5 RAGE clone (RAGE-H3) expressing the human histamine H3 receptor was grown in alpha-modified MEM containing 10% fetal bovine serum, 3 μg/ml puromycin, 500 μg/ml hygromycin B, 3.2 μM methotrexate at 37° C. in 5% CO2/95% atmosphere.
RAGE-H3 cells (10^9) were washed twice with cold PBS, scraped off the plates, and centrifuged at 1000×g for 5 minutes. Cells were resuspended in ice-cold 10 mM Tris HCl, pH 7.4, containing 5 mM EDTA and protease inhibitor cocktail tablets (Roche Molecular Biochemicals). After incubating on ice for 10 min, the cells were homogenized with a dounce homogenizer or a polytron tissue grinder, and centrifuged at 1000×g for 10 min at 4° C. The resulting supernatant was centrifuged at 32,000×g for 30 min at 4° C. The membrane pellets were resuspended in 50 mM Tris HCl, pH 7.4, and stored at −80° C. until use. Protein concentration was determined by the Bradford method (Bio-Rad Laboratories, CA).
Binding assays were carried out in 96-well polypropylene plates in 50 mM Tris HCl, pH 7.4, containing 1 mM EDTA. Reaction mixtures contained 100 μl of membrane suspension, 50 μl of 4% DMSO, and 50 μl of increasing amounts of [^125I]iodoproxyfan (final concentration 0.0005-1.8 nM for human H3 receptor saturation binding assay). Nonspecific binding was defined by adding 10 μM clobenpropit to the reaction mixtures. […]

T1 sequence (Q9Y5N1 whole entry): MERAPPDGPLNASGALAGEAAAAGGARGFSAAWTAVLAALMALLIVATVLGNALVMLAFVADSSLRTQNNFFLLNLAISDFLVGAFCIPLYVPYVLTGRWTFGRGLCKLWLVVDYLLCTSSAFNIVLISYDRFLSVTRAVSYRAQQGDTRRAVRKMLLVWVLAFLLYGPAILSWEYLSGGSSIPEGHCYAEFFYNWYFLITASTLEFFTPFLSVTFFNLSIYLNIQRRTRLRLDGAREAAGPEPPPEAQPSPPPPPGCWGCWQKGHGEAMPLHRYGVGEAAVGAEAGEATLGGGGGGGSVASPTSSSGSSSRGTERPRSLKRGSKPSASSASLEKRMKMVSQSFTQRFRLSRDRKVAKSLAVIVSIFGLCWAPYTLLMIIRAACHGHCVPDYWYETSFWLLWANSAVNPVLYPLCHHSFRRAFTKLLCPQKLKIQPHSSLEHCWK

Compound | Ki [nM]
Cc1cc(-c2ccccc2)n(-c2ccc(OCCCN3CCCC3)cc2)n1 [Example 41] | < 10
C[C@@H]1CCCN1CCCOc1ccc(-n2nc(C(F)(F)F)cc2-c2ccccc2)cc1 [Example 51, 1-{4-[3-(2-(R)-Methyl-pyrrolidin-1-yl)-propoxy]-phenyl}-5-phenyl-3-trifluoromethyl-1H-pyrazole] | < 100
CN(C)C1CCN(CCCOc2ccc(-n3nc(C(F)(F)F)cc3-c3ccccc3)cc2)C1 (stereo not drawn) [Example 52, Dimethyl-(1-{3-[4-(5-phenyl-3-trifluoromethyl-pyrazol-1-yl)-phenoxy]-propyl}-pyrrolidin-3-yl)-amine] | < 10000
FC(F)(F)c1cc(-c2ccccc2)n(-c2ccc(OCCCN3CCOCC3)cc2)n1 [Example 53, 4-{3-[4-(5-Phenyl-3-trifluoromethyl-pyrazol-1-yl)-phenoxy]-propyl}-morpholine] | < 1000
Cc1cc(OCCCN2CCCC2)ccc1-n1nc(C(C)C)cc1C(C)C [Example 61, 3,5-Diisopropyl-1-[2-methyl-4-(3-pyrrolidin-1-ylpropoxy)phenyl]-1H-pyrazole] | < 10
Cc1cc(OCCCN2CCCCC2)ccc1-n1nc(C(C)C)cc1C(C)C [Example 62, 3,5-Diisopropyl-1-[2-methyl-4-(3-piperidin-1-ylpropoxy)phenyl]-1H-pyrazole] | < 10
CC1CCCN1CCCOc1ccc(-n2nc(C(F)(F)F)c3oc4ccccc4c32)cc1 (stereo not drawn) [Example 67, 3-{4-[3-(2-Methyl-pyrrolidin-1-yl)-propoxy]-phenyl}-1-trifluoromethyl-3H-8-oxa-2,3-diaza-cyclopenta[a]indene] | < 100
CN(C)C1CCN(CCCOc2ccc(-n3nc(C(F)(F)F)c4oc5ccccc5c43)cc2)C1 (stereo not drawn) [Example 68, Dimethyl-(1-{3-[4-(1-trifluoromethyl-8-oxa-2,3-diaza-cyclopenta[a]inden-3-yl)-phenoxy]-propyl}-pyrrolidin-3-yl)-amine] | < 1000
Cc1cc(C(=O)NC2CCCCC2)n(-c2ccc(OCCCN3CCCC3)cc2)n1 [Example 73, 5-Methyl-2-[4-(3-pyrrolidin-1-yl-propoxy)-phenyl]-2H-pyrazole-3-carboxylic acid cyclohexylamide] | < 1
Cc1cc(C(=O)NC2CCCCC2)n(-c2ccc(OCCCN3CCC[C@H]3C)cc2)n1 [Example 74, 5-Methyl-2-{4-[3-(2R-methylpyrrolidin-1-yl)propoxy]phenyl}-2H-pyrazole-3-carboxylic acid cyclohexylamide] | < 1
Cc1cc(C(=O)NC2CCCCC2)n(-c2ccc(OCCCN3CCCCC3)cc2)n1 [Example 75, 5-Methyl-2-[4-(3-piperidin-1-ylpropoxy)phenyl]-2H-pyrazole-3-carboxylic acid cyclohexylamide] | < 1
Cc1cc(C(=O)NC2CCCCC2)n(-c2ccc(OCCCN3CCOCC3)cc2)n1 [Example 76, 5-Methyl-2-[4-(3-morpholin-4-ylpropoxy)phenyl]-2H-pyrazole-3-carboxylic acid cyclohexylamide] | < 10
Cc1cc(C(=O)NC2CCCCC2)n(-c2ccc(OCCC3CCCN3C)cc2)n1 (stereo not drawn) [Example 77, 5-Methyl-2-{4-[2-(1-methylpyrrolidin-2-yl)ethoxy]phenyl}-2H-pyrazole-3-carboxylic acid cyclohexylamide] | < 1000
Cc1cc(C(=O)N2CCCC2)n(-c2ccc(OCCCN3CCCC3)cc2)n1 [Example 78, {5-Methyl-2-[4-(3-pyrrolidin-1-ylpropoxy)phenyl]-2H-pyrazol-3-yl}pyrrolidin-1-ylmethanone] | < 10
Cc1cc(C(=O)NCC2CCCCC2)n(-c2ccc(OCCCN3CCCC3)cc2)n1 [Example 79, 5-Methyl-2-[4-(3-pyrrolidin-1-ylpropoxy)phenyl]-2H-pyrazole-3-carboxylic acid cyclohexylmethylamide] | < 1
Cc1cc(C(=O)NC2CCC2)n(-c2ccc(OCCCN3CCCC3)cc2)n1 [Example 80, 5-Methyl-2-[4-(3-pyrrolidin-1-ylpropoxy)phenyl]-2H-pyrazole-3-carboxylic acid cyclobutylamide] | < 1

Results, then the compound that gave them:

Ki [nM] | Compound
< 10 | Cc1nn(-c2ccc(OCCCN3CCCC3)cc2)c(C)c1-c1ccccc1 [Example 39, 4-Phenyl-3,5-dimethyl-1-[4-(3-pyrrolidin-1-ylpropoxy)phenyl]-1H-pyrazole]
< 10 | Cc1cc(-c2ccccc2)nn1-c1ccc(OCCCN2CCCC2)cc1 [Example 40, 5-Methyl-3-phenyl-1-[4-(3-pyrrolidin-1-ylpropoxy)phenyl]-1H-pyrazole]
< 10 | CC(C)(C)c1cc(-c2ccccc2)n(-c2ccc(OCCCN3CCCC3)cc2)n1 [Example 42, 3-tert-Butyl-5-phenyl-1-[4-(3-pyrrolidin-1-ylpropoxy)phenyl]-1H-pyrazole]
< 10 | FC(F)(F)c1cc(-c2ccccc2)n(-c2ccc(OCCCN3CCCC3)cc2)n1 [Example 50, 5-Phenyl-1-[4-(3-pyrrolidin-1-yl-propoxy)-phenyl]-3-trifluoromethyl-1H-pyrazole]
< 100 | FC(F)(F)c1cc(-c2ccccc2)n(-c2ccc(OCCCN3CCCCC3)cc2)n1 [Example 54, 1-{3-[4-(5-Phenyl-3-trifluoromethyl-pyrazol-1-yl)-phenoxy]-propyl}-piperidine]
< 10 | Cc1nn(-c2ccc(OCCCN3CCCC3)cc2)c2c1CCCC2 [Example 55, 3-Methyl-1-[4-(3-pyrrolidin-1-yl-propoxy)-phenyl]-4,5,6,7-tetrahydro-1H-indazole]
< 1 | Cc1c2c(nn1-c1ccc(OCCCN3CCCC3)cc1)CCCC2 [Example 56, 3-Methyl-2-[4-(3-pyrrolidin-1-yl-propoxy)-phenyl]-4,5,6,7-tetrahydro-2H-indazole]
< 10 | Cc1nn(-c2ccc(OCCCN3CCCC3)cc2)c2c1CCC2 [Example 57, 3-Methyl-1-[4-(3-pyrrolidin-1-yl-propoxy)-phenyl]-1,4,5,6-tetrahydro-cyclopentapyrazole]
< 100 | Cc1c2c(nn1-c1ccc(OCCCN3CCCC3)cc1)CCC2 [Example 58, 3-Methyl-2-[4-(3-pyrrolidin-1-yl-propoxy)-phenyl]-2,4,5,6-tetrahydro-cyclopentapyrazole]
< 10 | Cc1c2c(nn1-c1ccc(OCCCN3CCCCC3)cc1)CCC2 [Example 60, 3-Methyl-2-[4-(3-piperidin-1-yl-propoxy)-phenyl]-2,4,5,6-tetrahydro-cyclopentapyrazole]
< 100 | FC(F)(F)c1cc(-c2cc3ccccc3o2)n(-c2ccc(OCCCN3CCCC3)cc2)n1 [Example 63, 5-Benzofuran-2-yl-1-[4-(3-pyrrolidin-1-ylpropoxy)phenyl]-3-trifluoromethyl-1H-pyrazole]
< 10 | Cc1nn(-c2ccc(OCCCN3CCCC3)cc2)c2c1sc1ccccc12 [Example 64, 3-Methyl-1-[4-(3-pyrrolidin-1-yl-propoxy)-phenyl]-1H-benzo[4,5]thieno[3,2-c]pyrazole]
< 10 | Cc1nn(-c2ccc(OCCCN3CCCC3C)cc2)c2c1sc1ccccc12 (stereo not drawn) [Example 65, 3-Methyl-1-{4-[3-(2-methyl-pyrrolidin-1-yl)-propoxy]-phenyl}-1H-benzo[4,5]thieno[3,2-c]pyrazole]
< 1 | Cc1cc(C(=O)Nc2ccccc2)n(-c2ccc(OCCCN3CCCC3)cc2)n1 [Example 81, 5-Methyl-2-[4-(3-pyrrolidin-1-ylpropoxy)phenyl]-2H-pyrazole-3-carboxylic acid phenylamide]
